Data taken from patent publication US11618743B2, “Herbicidal compounds” (SYNGENTA PARTICIPATIONS AG, priority 2017, dated 2023).

Columns and labels:
Test in all cases: Post-emergence efficacy, Method C
Type in all cases: in vivo
Details in all cases: Application Rate 400 g/Ha, evaluated at 21 days
[1] = system: Amaranthus palmeri (AMAPA)
Procedure: (§1) An “instant formulation”, known as the IF50, containing 50 g/L of the “technical” (i.e. unformulated) active ingredient was prepared by dissolving the active ingredient in a mixture of organic solvents and emulsifier, details of which are provided in the table. This IF50 was then mixed with a small, variable amount of acetone to aid dissolution, before addition of a 1% v/v aqueous solution of the adjuvant Empicol ESC70 3EO (Sodium lauryl ether sulphate) and 1% v/v Ammonium sulphate, as the aqueous diluent, to form an aqueous spray solution which contains a predetermined concentration of the active ingredient (which varies depending on the application rate of the active ingredient to the plants).
(§2) Composition of the mixture of organic solvents and emulsifier used as a base for the instant formulation.
(§3) This aqueous spray solution was then sprayed onto the plants after about 21 days' cultivation. The plants were grown from seeds sown in standard soil, placed in a glasshouse under controlled conditions (at 24/18° C., day/night; 14 hours light; 65% humidity). After spray application the plants were then grown on in a glasshouse under the same conditions and watered twice daily. The test was evaluated at 21 days (100=total damage to plant; 0=no damage to plant).
(§4) Ipomoea hederacea (IPOHE), Amaranthus palmeri (AMAPA), Lolium perenne (LOLPE), Eleusine indica (ELEIN), Echinochloa crus-galli (ECHCG), Conyza canadensis (ERICA)

[2] = system: Conyza canadensis (ERICA)
Procedure: as §1, §2, §3, §4

[3] = system: Echinochloa crus-galli (ECHCG)
Procedure: as §1, §2, §3, §4

[4] = system: Ipomoea hederacea (IPOHE)
Procedure: as §1, §2, §3, §4

Lolium perenne (LOLPE) = system: Lolium perenne (LOLPE)
Procedure: as §1, §2, §3, §4

Structure (SMILES) | Control of weed species after post-emergence application, AMAPA (100=total damage to plant; 0=no damage to plant) [1] | Control of weed species after post-emergence application, ERICA (100=total damage to plant; 0=no damage to plant) [2] | Control of weed species after post-emergence application, ECHCG (100=total damage to plant; 0=no damage to plant) [3] | Control of weed species after post-emergence application, IPOHE (100=total damage to plant; 0=no damage to plant) [4] | Control of weed species after post-emergence application, LOLPE (100=total damage to plant; 0=no damage to plant) (Lolium perenne (LOLPE))
Cl.O=S(=O)([O-])CC[n+]1ccc(-c2ccncc2)cn1 [Compound A27] | 77 | 65 | 43 | 90 | 68
O=S(=O)([O-])C[n+]1ccc(-c2ncccn2)cn1 [Compound A3, (4-pyrimidin-2-ylpyridazin-1-ium-1-yl)methanesulfonate] | – | – | 13 | – | –
